In one assay the test system is Wistar rats. Nature of the assay: In vivo analgesia duration test using electrical stimulation (vocal response). Details: species or system Wistar albino rats. Here is the method: In vivo analgesia duration test was conducted using electrical stimulation testing, which was used as a means of determining analgesia in animals and humans (Grant et al., 2000). Testing for analgesia was done by a vocal response to electrical stimulation (beginning at 1 mA and increasing to a maximum of 8 mA) at the skin directly overlying the abdomen at the site of injection using a current generator. The abdominal hair of the experimental rats was shaved off, and they were screened prior to injection to determine their vocalization threshold, the current required to produce a vocalization response.
Animals will be treated in the following manner.
Polyherbal anaesthetic formulation, standard drug and 0.9% normal saline samples were injected subcutaneously into the abdomen of the experimental rats, followed by determination of analgesia at the fixed time intervals (5, 10, 20, 30, 40, 50, 60, and 70 min).

Assay [1] relates to rats (tail, noxious heat stimulus). Put plainly: Tail-flick latency (TFL) test of local anaesthetic effect. Type of assay: in vivo. The protocol: Local anaesthetic effects of LA-containing formulations were evaluated by tail-flick latency (TFL) test using a tail-flick measuring device (Ugo Basile, Varese, italy) (Puglia et al., 2011; Ouchi et al., 2013; Caffarel-Salvador et al., 2015). A noxious heat stimulus was applied via a focused, radiant heat light source to the dorsal surface of the tail. Tail-flick test started 5 min after the local application of different preparations, and the test was conducted every 10 min for 120 min. TFL was converted to represent the maximum possible effect (MPE) according to the following equation: […]
The baseline TFL was calculated as the mean of three different measurements taken at 10-min intervals. Baseline latencies were typically ranged from 2.5 to 3.0 s. A maximum cut-off latency of 10s was set to avoid tissue damage in analgesic animals. Results are expressed as mean±standard of eight rats per group.
(Hot-plate and tail-flick tests time the reaction to a heat stimulus.)

Marks after values point to notes of the source that are not given here.

Regarding `CCN(CC)CC(=O)Nc1c(C)cccc1C` [lignocaine 2% solution, lignocaine], in the assay on Wistar rats (0.05 mL subcutaneous injection into abdomen, rats), the “Median duration of analgesia” value amounted to 35 min. Moreover, the “Percentage (%) of animals with analgesia” value is given as 100.00** % in the assay on Wistar rats (5 minutes after 0.05 mL s.c.); 100.00** % in the assay with Wistar rats (10 minutes after 0.05 mL s.c.); 100.00** % in the assay on Wistar rats (20 minutes after 0.05 mL s.c.); 66.67** % in the assay on Wistar rats (30 minutes after 0.05 mL s.c.); 33.33** % with Wistar rats (40 minutes after 0.05 mL s.c.); 33.33** % with Wistar rats (50 minutes after 0.05 mL s.c.). The “Percentage (%) of animals with analgesia” value in the assay with Wistar rats (60 minutes after 0.05 mL s.c.) and with Wistar rats (70 minutes after 0.05 mL s.c.) was 16.67** % in each case. Further, the “Duration of anaesthetic effect/activity after application” value in assay [1] is “up to 30 min”.
